Test results: patent EP0373543A2, “Diagnostic media and assay for detecting fungicide resistance” (BASF Corporation, priority 1988, dated 1990)

Experiments:
Type in all cases: cell-based
[1] = system: Botrytis cinerea; experiment: Color change diameter on bromcresol purple media containing vinclozolin (Example 2); conditions: resistant isolates of Botrytis cinerea only; water dextrose media; after 4 days
[2] = system: Rhizopus nigricans; experiment: as above; design: key to COLOR CHANGE DIAMETER: T = only slight color change; conditions: for COLOR CHANGE DIAMETER: 20 hours
Method: To a stock solution of 0.4 g bromcresol purple in 260 mls of 0.01N sodium hydroxide, either 40 g of potato dextrose agar (PDA) or 40 g dextrose and 20 g agar (WA-dextrose medium) were added and the total volume brought up to 1 liter using distilled water. After autoclaving the media, a solution of vinclozolin in 5 mls of ethanol was added to afford 5 or 10 ppm concentrations and dispensed into petri plates (10 ml/plate). Sporulating cultures of Botrytis cinerea and Rhizopus nigricans (also known as Rhizopus stolonifer) were grown for two weeks on potato dextrose agar. Spores were transferred to the diagnostic media using sterile cotton tipped swabs and incubated for 20 hours at room temperature. The media was macroscopically examined and the diameter of color change detectable in the media was then measured.

[3] = system: Botrytis cinerea; experiment: Spore germination on agar-dextrose medium containing vinclozolin, microscopic examination (Example 1); conditions: 18 hours room temperature
Method: (§1) Resistant and sensitive fungi were initially obtained from crops of cultivated fruit in the field. The percent germination reported below was calculated by microscopic evaluation. An average of four fields of view per plate was examined with each field of view having a total of about 100 to 300 spores. The total number of spores in each field of view was counted then either the number germinated or not germinated, whichever was easiest to count, was determined. These numbers were then combined appropriately and the percent germination calculated. Unless otherwise noted, resistant isolates are given a numerical designation and sensitive isolates a letter designation.
Botrytis cinerea of known sensitivity and resistance to vinclozolin were cultured on potato dextrose agar prepared according to manufacturer's directions and Preparation Example 2 for 2 weeks and induced to sporulate under long wave ultraviolet light. Spores were transferred using a sterile cotton tipped swab to a solid medium containing 20 g of agar, 20 g dextrose and the amount of vinclozolin in parts per million per liter of media shown in Table 1 below. The innoculated media was incubated at room temperature for 18 hours and microscopically examined for germination; the results of this assay are set forth below in Table 1 where "BC" means Botrytis cinerea.

[4] = system: Botrytis cinerea; experiment: Color change response at varied vinclozolin concentration (Example 4); design: key: T = only slight color change; conditions: pH 5.5, about 48 hours
Method: Diagnostic media was prepared substantially as described above in Preparation Example 1 and the pH adjusted to 5.5 except that the vinclozolin concentrations in the media varied from about 10 ppm to 1000 ppm. The media was inoculated with 1 vinclozolin sensitive (BC-A) and 1 vinclozolin resistant isolate (BC-4) of Botrytis cinerea) and incubated at room temperature for about 48 hours.

[5] = system: Botrytis cinerea; experiment: Color change diameter on bromothymol blue diagnostic media at pH 7.5-8.5 (Example 3); design: key: T = only slight color change
Method: (§2) Diagnostic media was prepared substantially as described above in Preparation Example 1 except that bromothymol blue rather than bromcresol purple and only 4 g of dextrose was used per liter and the pH adjusted to 7.5, 8.0 and 8.5. These media were then inoculated with spores of either Botrytis cinerea or Rhizopus nigricans isolates substantially as previously described. The inoculated media was then incubated for 18 hours at room temperature and the results recorded below in Table III.

[6] = system: Rhizopus nigricans; experiment: as above; design: key: T = only slight color change
Method: as §2

[7] = system: Botrytis cinerea; experiment: Microscopic spore germination on the Example 3 plates; conditions: microscopically examined
Method: as §1, §2
Strong color reactions were only observed from the resistant Botrytis cinerea isolates. Only slight reactions, at most, occurred from the Rhizopus nigricans inoculations. Example 4

C=CC1(C)OC(=O)N(c2cc(Cl)cc(Cl)c2)C1=O (stereo not drawn) [vinclozolin]
diameter color reaction [1]: 25 mm | color reaction ([2]; Rhizopus nigricans isolates, PDA media containing 5 ppm of vinclozolin, after 4 days): allowed 1 of the Rhizopus nigricans contaminated isolates to react | COLOR CHANGE DIAMETER ([2]; isolate RP-1, PDA media, vinclozolin 5.0ppm): T | COLOR CHANGE DIAMETER ([2]; isolate RP-1, PDA media, vinclozolin 10.0ppm): 0 mm | COLOR CHANGE DIAMETER ([2]; isolate RP-1, WA-dextrose media, vinclozolin 5.0ppm): 0 mm | COLOR CHANGE DIAMETER ([2]; isolate RP-1, WA-dextrose media, vinclozolin 10.0ppm): 0 mm | COLOR CHANGE DIAMETER ([2]; isolate RP-2, PDA media, vinclozolin 5.0ppm): T | COLOR CHANGE DIAMETER ([2]; isolate RP-2, PDA media, vinclozolin 10.0ppm): 0 mm | COLOR CHANGE DIAMETER ([2]; isolate RP-2, WA-dextrose media, vinclozolin 5.0ppm): 0 mm | COLOR CHANGE DIAMETER ([2]; isolate RP-2, WA-dextrose media, vinclozolin 10.0ppm): 0 mm | Percent Germination ([3]; isolate BC-1 resistant, vinclozolin 2.5 ppm): 100% | Percent Germination ([3]; isolate BC-1 resistant, vinclozolin 5.0 ppm): 100% | Percent Germination ([3]; isolate BC-1 resistant, vinclozolin 10.0 ppm): 100% | Percent Germination ([3]; isolate BC-2 res., vinclozolin 2.5 ppm): 100% | Percent Germination ([3]; isolate BC-2 res., vinclozolin 5.0 ppm): 100% | Percent Germination ([3]; isolate BC-2 res., vinclozolin 10.0 ppm): 100% | Percent Germination ([3]; isolate BC-3 res., vinclozolin 2.5 ppm): 100% | Percent Germination ([3]; isolate BC-3 res., vinclozolin 5.0 ppm): 90% | Percent Germination ([3]; isolate BC-3 res., vinclozolin 10.0 ppm): 80% | Percent Germination ([3]; isolate BC-4 res., vinclozolin 2.5 ppm): 100% | Percent Germination ([3]; isolate BC-4 res., vinclozolin 5.0 ppm): 100% | Percent Germination ([3]; isolate BC-4 res., vinclozolin 10.0 ppm): 100% | Percent Germination ([3]; isolate BC-5 res., vinclozolin 2.5 ppm): 100% | Percent Germination ([3]; isolate BC-5 res., vinclozolin 5.0 ppm): 100% | Percent Germination ([3]; isolate BC-5 res., vinclozolin 10.0 ppm): 90% | Percent Germination ([3]; isolate BC-6 res., vinclozolin 2.5 ppm): 100% | Percent Germination ([3]; isolate BC-6 res., vinclozolin 5.0 ppm): 100% | Percent Germination ([3]; isolate BC-6 res., vinclozolin 10.0 ppm): 100% | Percent Germination ([3]; isolate BC-A sensitive, vinclozolin 2.5 ppm): 0% | Percent Germination ([3]; isolate BC-A sensitive, vinclozolin 5.0 ppm): 0% | Percent Germination ([3]; isolate BC-A sensitive, vinclozolin 10.0 ppm): 0% | Percent Germination ([3]; isolate BC-B sens., vinclozolin 2.5 ppm): 0% | Percent Germination ([3]; isolate BC-B sens., vinclozolin 5.0 ppm): 0% | Percent Germination ([3]; isolate BC-B sens., vinclozolin 10.0 ppm): 0% | Percent Germination ([3]; isolate BC-C sens., vinclozolin 2.5 ppm): 0% | Percent Germination ([3]; isolate BC-C sens., vinclozolin 5.0 ppm): 0% | Percent Germination ([3]; isolate BC-C sens., vinclozolin 10.0 ppm): 0% | Percent Germination ([3]; isolate BC-D sens., vinclozolin 2.5 ppm): 0% | Percent Germination ([3]; isolate BC-D sens., vinclozolin 5.0 ppm): 0% | Percent Germination ([3]; isolate BC-D sens., vinclozolin 10.0 ppm): 0% | Color Change Response ([4]; isolate BC-4 (vinclozolin resistant), vinclozolin 500 ppm): T | Color Change Response ([4]; isolate BC-4 (vinclozolin resistant), vinclozolin 1000 ppm): T | Color Change Response ([4]; isolate BC-A (vinclozolin sensitive), vinclozolin 1000 ppm): T | DIAMETER OF COLOR CHANGE ([5]; isolate BC B sens., pH 7.5, 18 hours): 0 mm | DIAMETER OF COLOR CHANGE ([5]; isolate BC B sens., pH 8.0, 18 hours): 0 mm | DIAMETER OF COLOR CHANGE ([5]; isolate BC B sens., pH 8.5, 18 hours): 0 mm | DIAMETER OF COLOR CHANGE ([5]; isolate BC-1 res., pH 7.5, 18 hours): 12 mm | DIAMETER OF COLOR CHANGE ([5]; isolate BC-1 res., pH 8.0, 18 hours): 6 mm | DIAMETER OF COLOR CHANGE ([5]; isolate BC-1 res., pH 8.5, 18 hours): 0 mm | DIAMETER OF COLOR CHANGE ([5]; isolate BC-2 res., pH 7.5, 18 hours): 12 mm | DIAMETER OF COLOR CHANGE ([5]; isolate BC-2 res., pH 8.0, 18 hours): 6 mm | DIAMETER OF COLOR CHANGE ([5]; isolate BC-2 res., pH 8.5, 18 hours): T | DIAMETER OF COLOR CHANGE ([5]; isolate BC-3 res., pH 7.5, 18 hours): 18 mm | DIAMETER OF COLOR CHANGE ([5]; isolate BC-3 res., pH 8.0, 18 hours): 12 mm | DIAMETER OF COLOR CHANGE ([5]; isolate BC-3 res., pH 8.5, 18 hours): 12 mm | DIAMETER OF COLOR CHANGE ([5]; isolate BC-4 res., pH 7.5, 18 hours): 12 mm | DIAMETER OF COLOR CHANGE ([5]; isolate BC-4 res., pH 8.0, 18 hours): 12 mm | DIAMETER OF COLOR CHANGE ([5]; isolate BC-4 res., pH 8.5, 18 hours): 12 mm | DIAMETER OF COLOR CHANGE ([5]; isolate BC-5 res., pH 7.5, 18 hours): 6 mm | DIAMETER OF COLOR CHANGE ([5]; isolate BC-5 res., pH 8.0, 18 hours): 3 mm | DIAMETER OF COLOR CHANGE ([5]; isolate BC-5 res., pH 8.5, 18 hours): 6 mm | DIAMETER OF COLOR CHANGE ([5]; isolate BC-6 resistant, pH 7.5, 18 hours): 6 mm | DIAMETER OF COLOR CHANGE ([5]; isolate BC-6 resistant, pH 8.0, 18 hours): 3 mm | DIAMETER OF COLOR CHANGE ([5]; isolate BC-6 resistant, pH 8.5, 18 hours): 6 mm | DIAMETER OF COLOR CHANGE ([5]; isolate BC-A sensitive, pH 7.5, 18 hours): 0 mm | DIAMETER OF COLOR CHANGE ([5]; isolate BC-A sensitive, pH 8.0, 18 hours): 0 mm | DIAMETER OF COLOR CHANGE ([5]; isolate BC-A sensitive, pH 8.5, 18 hours): 0 mm | DIAMETER OF COLOR CHANGE ([5]; isolate BC-C sens., pH 7.5, 18 hours): T | DIAMETER OF COLOR CHANGE ([5]; isolate BC-C sens., pH 8.0, 18 hours): 0 mm | DIAMETER OF COLOR CHANGE ([5]; isolate BC-C sens., pH 8.5, 18 hours): 0 mm | DIAMETER OF COLOR CHANGE ([5]; isolate BC-D sens., pH 7.5, 18 hours): T | DIAMETER OF COLOR CHANGE ([5]; isolate BC-D sens., pH 8.0, 18 hours): 0 mm | DIAMETER OF COLOR CHANGE ([5]; isolate BC-D sens., pH 8.5, 18 hours): 0 mm | DIAMETER OF COLOR CHANGE ([6]; isolate RP-3, pH 7.5, 18 hours): T | DIAMETER OF COLOR CHANGE ([6]; isolate RP-3, pH 8.0, 18 hours): T | DIAMETER OF COLOR CHANGE ([6]; isolate RP-3, pH 8.5, 18 hours): T | DIAMETER OF COLOR CHANGE ([6]; isolate RP-4, pH 7.5, 18 hours): T | DIAMETER OF COLOR CHANGE ([6]; isolate RP-4, pH 8.0, 18 hours): T | DIAMETER OF COLOR CHANGE ([6]; isolate RP-4, pH 8.5, 18 hours): T | spore germination ([7]; all of the resistant isolates): greater than 90% | spore germination ([7]; sensitive isolate spores): no germination
